Molecules are shown by their SMILES. Where a name gives a salt, the structure may show the parent alone.

In one experiment the test system is T1, 1N4R p-tau.
T1 construct: made in house; host or cells: E. coli (PIMAX system)
The experiment in a line: p-tau aggregation modulator screen of 1280-compound library (ThS fluorescence net change over 16 h).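 Note: 30 µM compound with 6 µM p-tau over 16 h.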 Type of experiment: biochemical.
Conditions: not given
Turning to `CCC(=O)O[C@@](Cc1ccccc1)(c1ccccc1)[C@@H](C)CN(C)C` [Levopropoxyphene napsylate], the ThS net change was found to be 434. On to `CCN(CC)CC(=O)Nc1c(C)cccc1C` [Lidocaine hydrochloride], for which the ThS net change is on record as 271. Still for that read-out and setting: then `COc1cccc(N(C)C(=S)Oc2ccc3c(c2)CCCC3)n1` [Liranaftate], with 435; and `CN(C)C(=O)C(CCN1CCC(O)(c2ccc(Cl)cc2)CC1)(c1ccccc1)c1ccccc1` [Loperamide hydrochloride], with 326.

Still in this experiment, the particulars now being: 1280-compound library screen; ThS fluorescence net change over 16 h.
Take `CC[C@@H](C(N)=O)N1CCCC1=O` [Levetiracetam]: the ThS net change is 407. The same measure, in the same setting: then `CC(=O)NC[C@H]1CN(c2ccc(N3CCOCC3)c(F)c2)C(=O)O1` [Linezolid], with 405. `N#Cc1cc(NC(=O)C(=O)O)c(Cl)c(NC(=O)C(=O)O)c1` [Lodoxamide] had a ThS net change of 409. Still for that read-out and setting: next, `CC(Oc1c(Cl)cccc1Cl)C1=NCCN1` (stereo not drawn) [Lofexidine]: 408; `CCn1cc(C(=O)O)c(=O)c2cc(F)c(N3CCNC(C)C3)c(F)c21` (stereo not drawn) [Lomefloxacin hydrochloride]: 390.

Still in this experiment, the particulars now being: 1280-compound library screen; […].
Molecule `C[C@H](N)[C@H](O)c1ccc(O)c(O)c1` [Levonordefrin] showed a ThS net change of 387.

The experiment is the same for the next values; noted with them: library screen, ThS fluorescence net change over 16 h with p-tau.
`N[C@@H](Cc1cc(I)c(Oc2ccc(O)c(I)c2)c(I)c1)C(=O)O` [Liothyronine] yielded a ThS net change of 298.

Still in this experiment, the particulars now being: p-tau aggregation modulator screen of 1280-compound library; ThS fluorescence net change.
Consider `c1ccc([C@H]2CN3CCSC3=N2)cc1` [Levamisole hydrochloride], for which the ThS net change is listed as 376. Still for that read-out and setting: next, `Cc1cccc(C)c1NC(=O)CN1CCN(CCCC(c2ccc(F)cc2)c2ccc(F)cc2)CC1` [Lidoflazine]: 341. `CCC[C@@H]1C[C@@H](C(=O)N[C@@H]([C@H]2O[C@H](SC)[C@H](O)[C@@H](O)[C@H]2O)[C@@H](C)O)N(C)C1` [Lincomycin hydrochloride] registered a ThS net change of 367. `NCCCC[C@H](N[C@@H](CCc1ccccc1)C(=O)O)C(=O)N1CCC[C@H]1C(=O)O` [Lisinopril] had a ThS net change of 328.

In the case of `CN(CCCN1c2ccccc2CCc2ccccc21)CC(=O)c1ccc(Cl)cc1` [Lofepramine], the ThS net change is 375. On the same count and under the same terms, then `N[C@@H](C(=O)N[C@@H]1C(=O)N2C(C(=O)O)=C(Cl)CC[C@H]12)c1ccccc1` [Loracarbef], with 361.

The experiment is the same for the next values; noted with them: p-tau aggregation modulator screen of the compound library, ThS fluorescence net change.
`N#Cc1ccc(C(c2ccc(C#N)cc2)n2cncn2)cc1` [Letrozole] displayed a ThS net change of 453.

Regarding `CC(C)(C)NC[C@H](O)c1ccc(O)c(CO)c1` [Levalbuterol hydrochloride], the ThS net change was found to be 422. Still for that read-out and setting: then `C[C@@H]1CN([C@H]2CC[C@](C#N)(c3ccc(F)cc3)CC2)CC[C@]1(C(=O)O)c1ccccc1` [Levocabastine hydrochloride], with 416; and `N[C@@H](Cc1ccc(O)c(O)c1)C(=O)O` [Levodopa], with 444. For `C[C@H](CCC(=O)O)[C@H]1CC[C@H]2[C@@H]3CC[C@@H]4C[C@H](O)CC[C@]4(C)[C@H]3CC[C@]12C` [Lithocholic acid], the ThS net change came to 566. As for `COc1ccc(CN2CCN(C(c3ccc(F)cc3)c3ccc(F)cc3)CC2)c(OC)c1OC.Cl` [Lomerizine hydrochloride], the ThS net change is reported as 458. Still for that read-out and setting: then `CCOC(=O)N1CCC(=C2c3ccc(Cl)cc3CCc3cccnc32)CC1` [Loratadine], with 450; and `CCCCCN(CCCCC)C(=O)C(CCC(=O)[O-])NC(=O)c1ccc(Cl)c(Cl)c1.[Na+]` (stereo not drawn) [Lorglumide sodium salt], with 520.

Regarding `CCCCc1nc(Cl)c(CO)n1Cc1ccc(-c2ccccc2-c2nn[nH]n2)cc1` [Losartan], the ThS net change was 468.

In turn, `CCOC(=O)O[C@]1(C(=O)OCCl)CC[C@H]2[C@@H]3CCC4=CC(=O)C=C[C@]4(C)[C@H]3[C@@H](O)C[C@@]21C` [Loteprednol etabonate] returned a ThS net change of 531.

These data come from article PMC7539012, “Hyperphosphorylated tau aggregation and cytotoxicity modulators screen identified prescription drugs linked to Alzheimer's disease and cognitive functions” (Scientific Reports, 2020).
